How the values were obtained:
Format in all cases: biochemical
[1] = molecular target: α-amylase from Bacillus licheniformis (Bacillus licheniformis, UniProt P06278); assay: hydrolysis of cooked dent corn starch; details: cooked dent corn starch 0.5%, pH 5.2, 37° C., 10 min
Method: (§2) The separate reaction mixtures were incubated at 37° C. for 10 minutes. The control reaction mixtures contained enzyme, buffer, and starch but no manganese ion. The starch hydrolysis reaction was stopped by combining the reaction mixture with a solution containing DNSA and heating for 30 min at 85° C. The absorbance of the control and test samples was measured at 562 nm to monitor the amount of reducing sugar in each sample.

β-amylase from barley [2] = molecular target: T1, β-amylase from barley (Hordeum vulgare, UniProt P16098); assay: hydrolysis of cooked starches from different botanical sources; details: pH 5.2, 37° C., 10 min
Method: (§1) The control reaction mixture contained enzyme, buffer, and starch but no manganese ion. The starch hydrolysis reaction was stopped by combining the reaction mixture with 3,5 dinitrosalicylic acid (DNSA) and heating for 30 min at 85° C. The absorbance of the control and test samples was measured at 562 nm to monitor the amount of reducing sugar in each sample.

β-amylase from barley [3] = molecular target: T1, β-amylase from barley; assay: pH effect on hydrolysis of cooked dent corn starch; details: 1 mM Mn^++; for Relative Activity: cooked dent corn starch 0.5%, 37° C., 10 min, control at pH 5 = 100
Method: as §1, with “The separate reaction mixtures were then incubated at 37° C. for 10 minutes. The control” for “The control”, “mixture with a solution containing DNSA and heating” for “mixture with 3,5 dinitrosalicylic acid (DNSA) and heating”

[4] = molecular target: T2, α-amylase from bovine pancreas (Bos taurus, UniProt Q3MHH8); assay: hydrolysis of raw corn starch at pH 5.3 or 7.0, reducing sugar by DNSA; details: for Relative Activity: 37° C., 20 min
T2 construct: The α-amylase from bovine pancreas; from tissue; host or cells: bovine pancreas
T2 sequence (Q3MHH8 16-511): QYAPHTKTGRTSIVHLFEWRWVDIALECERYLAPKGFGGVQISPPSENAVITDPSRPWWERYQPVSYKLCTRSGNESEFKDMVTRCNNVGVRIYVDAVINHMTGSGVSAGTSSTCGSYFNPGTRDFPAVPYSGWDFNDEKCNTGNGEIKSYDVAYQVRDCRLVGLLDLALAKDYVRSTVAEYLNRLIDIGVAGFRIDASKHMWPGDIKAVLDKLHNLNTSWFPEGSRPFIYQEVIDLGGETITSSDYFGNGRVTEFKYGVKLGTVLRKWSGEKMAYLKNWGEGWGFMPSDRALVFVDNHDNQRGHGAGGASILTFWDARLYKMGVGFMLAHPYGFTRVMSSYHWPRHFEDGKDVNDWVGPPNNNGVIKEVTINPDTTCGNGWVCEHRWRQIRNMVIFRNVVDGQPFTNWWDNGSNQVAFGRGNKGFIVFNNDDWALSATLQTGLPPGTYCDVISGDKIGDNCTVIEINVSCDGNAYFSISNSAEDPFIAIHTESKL
Method: (§3) Thereafter, 40 μl of each pre-incubation solution was added to 15 mg raw corn starch, and the reaction mixture incubated at 37° C. for 20 minutes. The control reaction mixture contained substrate, enzyme, and buffer but no manganese ion. The starch hydrolysis reaction was stopped by combining the reaction mixture with a solution containing DNSA and heating for 30 min at 85° C. The absorbance of the control and test samples was measured at 562 nm to monitor the amount of reducing sugar in each sample.

[5] = molecular target: T3, β-amylase from sweet potato (Ipomoea batatas, UniProt P10537); assay: hydrolysis of cooked dent corn starch; details: cooked dent corn starch 0.5%, pH 5.2, 37° C., 10 min
T3 construct: purchased Sigma A-7005
Method: as §2

[6] = tested on: glucoamylase from Rhizopus sp.; assay: temperature effect on conversion of raw corn starch; details: 1 mM Mn^++; for % Conversion: 10 min, raw corn starch, pH 5.3
Method: An enzyme solution of the glucoamylase from Rhizopus sp. […] Thereafter, 50 μl of the enzyme solution was added to each of four samples containing 15 mg raw corn starch and incubated at 22° C., 32° C., 40° C. or 50° C., respectively, for 10 minutes.

[7] = molecular target: α-amylase from Bacillus amyloliquefaciens (Bacillus amyloliquefaciens, UniProt P00692); assay: hydrolysis of raw corn starch, reducing sugar by DNSA; details: for Relative Activity: raw corn starch, pH 5.3, 37° C., 20 min
Method: as §3

β-amylase from barley [8] = molecular target: T1, β-amylase from barley; assay: hydrolysis of cooked dent corn starch; details: cooked dent corn starch 0.5%, pH 5.2, 37° C., 10 min
Method: as §2

Sequence of α-amylase from Bacillus licheniformis (P06278 30-512): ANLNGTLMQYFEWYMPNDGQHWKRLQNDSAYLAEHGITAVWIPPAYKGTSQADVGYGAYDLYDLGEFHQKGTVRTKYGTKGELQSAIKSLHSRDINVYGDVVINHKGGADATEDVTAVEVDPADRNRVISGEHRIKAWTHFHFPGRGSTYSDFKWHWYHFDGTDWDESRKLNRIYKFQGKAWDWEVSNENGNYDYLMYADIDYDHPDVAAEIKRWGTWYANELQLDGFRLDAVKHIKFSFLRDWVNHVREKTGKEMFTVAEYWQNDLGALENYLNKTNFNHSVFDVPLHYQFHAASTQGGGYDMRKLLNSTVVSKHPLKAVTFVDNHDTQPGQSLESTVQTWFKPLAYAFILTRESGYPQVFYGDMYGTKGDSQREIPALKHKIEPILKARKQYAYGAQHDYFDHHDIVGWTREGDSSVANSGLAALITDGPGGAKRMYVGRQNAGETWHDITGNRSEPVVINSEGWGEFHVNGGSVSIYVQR
Sequence of α-amylase from Bacillus amyloliquefaciens (P00692 32-514): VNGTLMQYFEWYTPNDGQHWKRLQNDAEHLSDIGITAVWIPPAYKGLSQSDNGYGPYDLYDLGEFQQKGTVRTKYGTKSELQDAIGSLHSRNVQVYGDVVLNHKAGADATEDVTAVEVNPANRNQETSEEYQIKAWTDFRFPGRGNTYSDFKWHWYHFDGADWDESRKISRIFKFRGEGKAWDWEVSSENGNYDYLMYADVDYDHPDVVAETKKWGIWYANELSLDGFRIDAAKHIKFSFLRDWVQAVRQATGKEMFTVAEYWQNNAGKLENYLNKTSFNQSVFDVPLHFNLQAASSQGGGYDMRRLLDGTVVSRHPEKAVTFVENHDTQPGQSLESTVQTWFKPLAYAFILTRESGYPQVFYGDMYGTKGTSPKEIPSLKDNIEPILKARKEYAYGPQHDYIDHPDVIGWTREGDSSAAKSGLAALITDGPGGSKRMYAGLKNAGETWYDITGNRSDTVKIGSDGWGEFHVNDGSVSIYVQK
T1 sequence (P16098 whole entry): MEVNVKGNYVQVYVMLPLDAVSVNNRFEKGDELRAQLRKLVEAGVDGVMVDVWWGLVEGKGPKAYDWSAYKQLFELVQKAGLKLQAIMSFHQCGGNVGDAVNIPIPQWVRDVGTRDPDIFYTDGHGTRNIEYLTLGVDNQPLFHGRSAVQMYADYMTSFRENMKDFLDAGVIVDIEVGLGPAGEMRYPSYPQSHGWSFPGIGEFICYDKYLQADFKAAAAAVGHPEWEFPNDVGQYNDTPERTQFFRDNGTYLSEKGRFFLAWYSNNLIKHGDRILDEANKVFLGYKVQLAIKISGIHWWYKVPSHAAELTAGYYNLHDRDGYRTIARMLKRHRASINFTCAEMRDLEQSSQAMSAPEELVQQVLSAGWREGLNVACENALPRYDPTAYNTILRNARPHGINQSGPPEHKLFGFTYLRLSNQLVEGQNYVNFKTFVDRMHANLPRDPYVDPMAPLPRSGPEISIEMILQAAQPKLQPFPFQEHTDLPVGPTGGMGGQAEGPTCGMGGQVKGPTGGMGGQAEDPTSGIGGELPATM
T3 sequence (P10537 whole entry): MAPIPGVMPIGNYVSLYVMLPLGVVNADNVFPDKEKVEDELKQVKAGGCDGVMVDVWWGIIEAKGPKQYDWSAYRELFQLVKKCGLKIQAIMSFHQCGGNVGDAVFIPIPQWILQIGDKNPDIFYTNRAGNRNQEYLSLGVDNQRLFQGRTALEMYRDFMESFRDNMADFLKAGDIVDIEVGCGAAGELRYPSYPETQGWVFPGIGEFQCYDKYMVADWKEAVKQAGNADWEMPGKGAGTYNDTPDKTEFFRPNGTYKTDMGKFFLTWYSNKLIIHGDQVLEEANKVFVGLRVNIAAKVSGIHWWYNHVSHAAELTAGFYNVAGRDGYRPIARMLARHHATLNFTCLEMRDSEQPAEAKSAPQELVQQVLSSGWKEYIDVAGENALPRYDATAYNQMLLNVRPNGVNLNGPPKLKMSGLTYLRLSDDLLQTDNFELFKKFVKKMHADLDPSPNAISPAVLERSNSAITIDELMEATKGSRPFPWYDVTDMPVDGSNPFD

## [Mn+2] [Mn^++, manganese ions]
[1]; 0.1 mM Mn^++
  Relative Activity: 124.4%
[1]; 1 mM Mn^++
  Relative Activity: 128.7%
[1]; 10 mM Mn^++
  Relative Activity: 147.8%
β-amylase from barley [2]; 0.01 mM Mn^++, cooked barley starch 0.5%
  Relative Activity: 115.2%
β-amylase from barley [2]; 0.01 mM Mn^++, cooked pea starch 0.5%
  Relative Activity: 108.1%
β-amylase from barley [2]; 0.01 mM Mn^++, cooked potato starch 0.5%
  Relative Activity: 109.5%
β-amylase from barley [2]; 0.01 mM Mn^++, cooked rice starch 0.5%
  Relative Activity: 107.8%
β-amylase from barley [2]; 0.01 mM Mn^++, cooked soluble potato starch 0.5%
  Relative Activity: 117.4%
β-amylase from barley [2]; 0.01 mM Mn^++, cooked tapioca starch 0.5%
  Relative Activity: 111.3%
β-amylase from barley [2]; 0.01 mM Mn^++, cooked wheat starch 0.5%
  Relative Activity: 120.2%
β-amylase from barley [2]; 0.1 mM Mn^++, cooked barley starch 0.5%
  Relative Activity: 121.1%
β-amylase from barley [2]; 0.1 mM Mn^++, cooked pea starch 0.5%
  Relative Activity: 122.3%
β-amylase from barley [2]; 0.1 mM Mn^++, cooked potato starch 0.5%
  Relative Activity: 117.5%
β-amylase from barley [2]; 0.1 mM Mn^++, cooked rice starch 0.5%
  Relative Activity: 123.9%
β-amylase from barley [2]; 0.1 mM Mn^++, cooked soluble potato starch 0.5%
  Relative Activity: 136.0%
β-amylase from barley [2]; 0.1 mM Mn^++, cooked tapioca starch 0.5%
  Relative Activity: 122.1%
β-amylase from barley [2]; 0.1 mM Mn^++, cooked wheat starch 0.5%
  Relative Activity: 141.9%
β-amylase from barley [2]; 1 mM Mn^++, cooked barley starch 0.5%
  Relative Activity: 154.0%
β-amylase from barley [2]; 1 mM Mn^++, cooked pea starch 0.5%
  Relative Activity: 139.2%
β-amylase from barley [2]; 1 mM Mn^++, cooked potato starch 0.5%
  Relative Activity: 135.4%
β-amylase from barley [2]; 1 mM Mn^++, cooked rice starch 0.5%
  Relative Activity: 138.1%
β-amylase from barley [2]; 1 mM Mn^++, cooked soluble potato starch 0.5%
  Relative Activity: 154.1%
β-amylase from barley [2]; 1 mM Mn^++, cooked tapioca starch 0.5%
  Relative Activity: 135.6%
β-amylase from barley [2]; 1 mM Mn^++, cooked wheat starch 0.5%
  Relative Activity: 151.9%
β-amylase from barley [2]; 10 mM Mn^++, cooked barley starch 0.5%
  Relative Activity: 197.5%
β-amylase from barley [2]; 10 mM Mn^++, cooked pea starch 0.5%
  Relative Activity: 253.4%
β-amylase from barley [2]; 10 mM Mn^++, cooked potato starch 0.5%
  Relative Activity: 175.1%
β-amylase from barley [2]; 10 mM Mn^++, cooked rice starch 0.5%
  Relative Activity: 173.4%
β-amylase from barley [2]; 10 mM Mn^++, cooked soluble potato starch 0.5%
  Relative Activity: 165.6%
β-amylase from barley [2]; 10 mM Mn^++, cooked tapioca starch 0.5%
  Relative Activity: 180.5%
β-amylase from barley [2]; 10 mM Mn^++, cooked wheat starch 0.5%
  Relative Activity: 221.1%
β-amylase from barley [3]; cooked dent corn starch, pH 3-8 tested
  pH range of greatest Mn^++ induced enhancement: 5.0-6.0
β-amylase from barley [3]; pH 3
  Relative Activity: 0%
β-amylase from barley [3]; pH 4
  Relative Activity: 105.8%
β-amylase from barley [3]; pH 5
  Relative Activity: 173.1%
β-amylase from barley [3]; pH 6
  Relative Activity: 176.9%
β-amylase from barley [3]; pH 7
  Relative Activity: 165.4%
β-amylase from barley [3]; pH 8
  Relative Activity: 74%
[4]; 0.01 mM Mn^++, pH 5.3 sodium acetate buffer
  Relative Activity: 108.3%
[4]; 0.01 mM Mn^++, pH 7.0 potassium phosphate buffer
  Relative Activity: 103.5%
[4]; 0.1 mM Mn^++, pH 5.3 sodium acetate buffer
  Relative Activity: 125.0%
[4]; 0.1 mM Mn^++, pH 7.0 potassium phosphate buffer
  Relative Activity: 103.5%
[4]; 1 mM Mn^++, pH 5.3 sodium acetate buffer
  Relative Activity: 145.2%
[4]; 1 mM Mn^++, pH 7.0 potassium phosphate buffer
  Relative Activity: 119.6%
[4]; 10 mM Mn^++, pH 5.3 sodium acetate buffer
  Relative Activity: 139.9%
[4]; 10 mM Mn^++, pH 7.0 potassium phosphate buffer
  Relative Activity: 95.7%
[4]; pH 5.3 vs 7.0
  pH dependence of Mn^++ activation (in words): greater activation at a pH of 5.3 than at 7.0
[5]; 0.01 mM Mn^++
  Relative Activity: 117.6%
[5]; 0.1 mM Mn^++
  Relative Activity: 131.4%
[5]; 1 mM Mn^++
  Relative Activity: 148.0%
[5]; 10 mM Mn^++
  Relative Activity: 215.0%
[6]; 22-50° C.
  temperature dependence of Mn^++ activation (in words): occurs at a wide temperature range
[6]; 22° C.
  % Conversion: 0.026%
[6]; 32° C.
  % Conversion: 0.064%
[6]; 40° C.
  % Conversion: 0.152%
[6]; 50° C.
  % Conversion: 0.274%
[7]; 0.01 mM Mn^++
  Relative Activity: 101.5%
[7]; 0.1 mM Mn^++
  Relative Activity: 115.7%
[7]; 1 mM Mn^++
  Relative Activity: 119.1%
[7]; 10 mM Mn^++
  Relative Activity: 111.7%
[7]; summary of Table 4
  effect on hydrolysis of raw corn starch (in words): enhances the hydrolysis of raw corn starch
β-amylase from barley [8]; 0.01 mM Mn^++
  Relative Activity: 123.5%
β-amylase from barley [8]; 0.1 mM Mn^++
  Relative Activity: 135.3%
β-amylase from barley [8]; 1 mM Mn^++
  Relative Activity: 149.8%
β-amylase from barley [8]; 10 mM Mn^++
  Relative Activity: 210.1%

— patent US20080102497A1, “ENZYMATIC HYDROLYSIS OF STARCH” (priority 2006, published 2008)
